Activity calls are given as the source filed them. The calls are words filed in the database; no cut-off is given here.
How the values were obtained:
[1] = Effective permeability of the compound in PBS at 10 uM at pH 7.4 after 16 hrs by PAMPA-BBB assay
[2] = Effective permeability of the compound at pH 7.4 by PAMPA-BBB assay
[3] = tested on: Thoracic aorta; experiment: Antiangiogenic activity in Sprague-Dawley rat thoracic aorta ring assessed as inhibition of microvessels outgrowth at 50 uM after 5 days; type: functional
[4] = tested on: Thoracic aorta; experiment: Antiangiogenic activity in Sprague-Dawley rat thoracic aorta ring assessed as inhibition of microvessels outgrowth after 5 days; type: functional, tissue-based; conditions: 120 h
[5] = tested on: Thoracic aorta; experiment: Antiangiogenic activity in Sprague-Dawley rat thoracic aorta ring assessed as inhibition of microvessels outgrowth at 1 uM after 5 days; type: functional, tissue-based

Structure (SMILES): CN(Cc1cnc2nc(N)nc(N)c2n1)c1ccc(C(=O)N[C@@H](CCC(=O)O)C(=O)O)cc1 [METHOTREXATE]
- Papp at 16 h, 10 µM [1]: 0.007 ×10⁻⁶ cm/s
- Peff [2]: 0.037 ×10⁻⁶ cm/s

Structure (SMILES): CCCCCCCCCCCC[C@@H](N=[N+]=[N-])[C@H]1CC[C@H]([C@@H](CCCC[C@@H](CCCCC[C@H](CC2=C[C@H](C)OC2=O)N=[N+]=[N-])N=[N+]=[N-])N=[N+]=[N-])O1
- inhibition [3]: inactive

Structure (SMILES): CC(C)NCC(O)COc1cccc2ccccc12 (centres undefined) [PROPRANOLOL]
- Papp [2]: 12 ×10⁻⁶ cm/s

Structure (SMILES): CCCCCCCCCCCC[C@@H](O)[C@H]1CC[C@H]([C@H](O)CCCC[C@H](O)CCCCC[C@@H](O)CC2=C[C@H](C)OC2=O)O1
- Papp at 16 h, 10 µM [1]: 0.51 ×10⁻⁶ cm/s
- IC50 [4]: 3000 nM

Structure (SMILES): CNC(=O)c1cc(Oc2ccc(NC(=O)Nc3ccc(Cl)c(C(F)(F)F)c3)cc2)ccn1
- inhibition [5]: Active

Structure (SMILES): CCCCCCCCCCCC[C@H](N=[N+]=[N-])[C@H]1CC[C@H]([C@H](CCCC[C@H](CCCCC[C@@H](CC2=C[C@H](C)OC2=O)N=[N+]=[N-])N=[N+]=[N-])N=[N+]=[N-])O1
- inhibition at 50 µM ([3]; 120 h): 40%

Structure (SMILES): CO[C@@H]1[C@H](OC(=O)NC(=O)CCl)CC[C@]2(CO2)[C@H]1[C@@]1(C)O[C@@H]1CC=C(C)C
- inhibition [3]: Active
